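Test compounds were applied to cells in 96-well plates for 48 hours at 5 doses. Here, GI50 denotes the concentration required for 50% inhibition of growth. TGI: concentration producing complete growth inhibition.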

What all share (assay): NCI-60 cell line screen, 48 h
The subject of assay [1] is UO-31 renal.
For assay [2], the system named is MALME-3M melanoma.
In assay [3] the test system is NCI-H522 lung.
For assay [4], the system named is MOLT-4 leukemia.
Assay [5] has as its system HCC-2998 colon.
The subject of assay [6] is HCT-116 colon.
Assay [7] deals with SF-268 CNS.
For assay [8], the system named is U251 CNS.
For assay [9], the system named is SF-539 CNS.
For assay [10], the system named is SK-MEL-2 melanoma.

For `Cc1ccc(-c2cc(-c3ccco3)c(C#N)c(=O)[nH]2)cc1`, the TGI in assay [1], in assay [2], in [3], in assay [4], in assay [5] and in [6] was above 100 µM each time. Besides, the TGI in [7], in [8] and in [9] was above 100 µM each time.

With `CCOC(=O)C1=C(C(=O)c2ccc(C)cc2)C(c2cccc([N+](=O)[O-])c2)C(C(=O)c2ccc(C)cc2)=C(C(=O)OCC)N1`, the TGI is 29.5 µM in assay [1]; 66.4 µM in [2]; 36.2 µM in [3]; above 100 µM in assay [4]; above 100 µM in assay [10]; 19.6 µM in [6]. The TGI in assay [7] is 46.1 µM; in [8] it was 25.8 µM; in assay [9], 26.7 µM.

For `NC1CCCCC1.[O]=[Ge].[O]=[Ge].[O]=[Ge][OH].[O]=[Ge][OH]`, in [1], the GI50 was above 100 µM. Further, the TGI in [1], in assay [2], in assay [4], in assay [10], in assay [5] and in assay [6] was above 100 µM throughout. Also, the TGI in assay [7] and in assay [9] was above 100 µM each time.

Regarding `CC1CC2CC(=O)CC3(C1)C2CCCN3CCCO` (stereo not given), the TGI in assay [1], in [2], in [3], in [4], in [10] and in assay [6] was above 100 µM in each case. Further, the TGI in assay [7], in assay [8] and in [9] was above 100 µM throughout.

`COC[C@@H](N=CN1CCc2cc(OC)c(OC)cc2[C@@H]1C)C(C)(C)C`: the TGI in assay [1], in [2], in assay [3], in assay [4], in [10] and in assay [6] was above 100 µM each time. Besides, the TGI in assay [7], in assay [8] and in [9] was above 100 µM each time.

In the case of `FC(F)(F)c1cc(-c2nnc3n2N=C(N2CCCC2)CS3)cc(C(F)(F)F)c1`, the GI50 was above 50 µM in [1]; above 50 µM in assay [2]; 24 µM in [3]; above 50 µM in [10]; above 50 µM in assay [5]; 7.99 µM in assay [6]. Also, the GI50 in assay [7] was above 50 µM; in assay [8], 18.1 µM; in assay [9] it was 34 µM. The TGI in [1], in [2], in [3], in [10], in assay [5] and in [6] was above 50 µM throughout. Moreover, the TGI in [7], in assay [8] and in assay [9] was above 50 µM each time.

`O=C(/C=C/C12c3ccccc3C(c3ccccc31)C1C(=O)N(c3ccccc3)C(=O)C12)c1ccccc1` (stereo not given): the GI50 in [3] was 1.59 µM; in [4], 1.23 µM; in assay [10] it was 2.13 µM; in [5], 1.75 µM; in assay [6] it was 0.695 µM; in [7], 8.56 µM. Also, the values for the GI50 in assay [8] and in [9] were 2.48 µM and 2.09 µM, respectively. The TGI was 4.45 µM in assay [3]; above 100 µM in [4]; 7.85 µM in assay [10]; 3.62 µM in [5]; 2.07 µM in assay [6]; above 100 µM in assay [7]. The TGI in assay [8] is 9.44 µM; in [9], 5.14 µM.

As for `CCCCc1c2c(nc3c1CCc1cc4cc5c(nc4nc1-3)-c1nc3c(c(CCCC)c1CC5)CCCC3)CCCC2`, the TGI in assay [1], in [2], in assay [3], in assay [4], in [5] and in assay [6] was above 100 µM throughout. In addition, the TGI in assay [7], in assay [8] and in [9] was above 100 µM in each case.

For the compound `CCCCS(=O)CCC(N)C(=O)O` (stereo not given), the TGI in assay [1], in assay [2], in assay [3], in assay [4], in [5] and in assay [6] was above 100 µM in each case. The TGI in assay [7], in [8] and in assay [9] was above 100 µM each time.

Regarding `CC(=O)Nc1ccc(C(=O)NN2C(=O)C(Cl)C2c2ccc([N+](=O)[O-])cc2)cc1` (stereo not given), the TGI in assay [1], in assay [2], in [3], in [4], in assay [10] and in assay [6] was above 100 µM in each case. Moreover, the TGI in [7], in assay [8] and in assay [9] was above 100 µM throughout.

As to `O=C1C=C(NCCNC(=S)Nc2ccccc2)c2nccc3c2c1nc1ccccc13`, the GI50 in [1] was above 100 µM; in assay [2], 30.1 µM; in assay [3] it was 46.8 µM; in [10], above 100 µM; in assay [5], 17.6 µM; in assay [6], 14 µM. The results for the GI50 in [7], in [8] and in assay [9] were 53.7 µM, 58.9 µM and 49.1 µM, respectively. Also, the TGI in [1], in assay [2], in assay [3], in assay [10], in [5] and in assay [6] was above 100 µM each time. The TGI in assay [7], in assay [8] and in assay [9] was above 100 µM in each case.

`O=C(c1ccc2ccccc2c1)c1c(C(F)(F)F)n([O-])c2cc(F)c(F)cc2[n+]1=O`: the GI50 was 1.02 µM in assay [1]; 1.13 µM in assay [2]; 0.749 µM in assay [4]; 2.16 µM in assay [10]; 2.42 µM in assay [5]; 1.5 µM in assay [6]. The GI50 in [7] was 3.36 µM; in [9] it was 2.21 µM. Moreover, the TGI was determined as 2.68 µM in assay [1]; 2.65 µM in [2]; 2.68 µM in assay [4]; 5.52 µM in [10]; 7.65 µM in [5]; 3.02 µM in assay [6]. In addition, the figures for the TGI in assay [7] and in [9] were 19.5 µM and 3.98 µM, respectively.

(Values after PubChem BioAssay (NCI).)
